Assay results published in the kinase profiling compilation of Christmann-Franck et al. (2016).

Experiments:
Assay in all cases: KINOMEscan competition binding
Settings in all cases: compound 10.0 µM
[1] = target: MINK1 (human) (UniProt Q8N4C8)
[2] = target: RPS6KA1 KD1 (human) (UniProt Q15418)
[3] = target: PIP4K2C (human) (UniProt Q8TBX8)
[4] = target: OXSR1 (human) (UniProt O95747)
[5] = target: TIE1 (human) (UniProt P35590)
[6] = target: PIM3 (human) (UniProt Q86V86)
[7] = target: ADCK4 (human) (UniProt Q96D53)
[8] = target: RIOK2 (human) (UniProt Q9BVS4)
[9] = target: EPHA6 (human) (UniProt Q9UF33)
[10] = target: CSF1R (human) (UniProt P07333)
[11] = target: ZAP70 (human) (UniProt P43403)
[12] = target: AKT2 (human) (UniProt P31751)
[13] = target: STK25 (human) (UniProt O00506)
[14] = target: ERBB2 (human) (UniProt P04626)
[15] = target: CSNK1G2 (human) (UniProt P78368)
[16] = target: CSNK1E (human) (UniProt P49674)
[17] = target: EPHB4 (human) (UniProt P54760)
[18] = target: PIK3C2G (human) (UniProt O75747)
[19] = target: FER (human) (UniProt P16591)
[20] = target: LATS2 (human) (UniProt Q9NRM7)
[21] = target: SNRK (human) (UniProt Q9NRH2)
[22] = target: STK32C (human) (UniProt Q86UX6)
[23] = target: SRPK1 (human) (UniProt Q96SB4)
[24] = target: SIK2 (human) (UniProt Q9H0K1)
[25] = target: BRSK1 (human) (UniProt Q8TDC3)
[26] = target: CDK9 (human) (UniProt P50750)
[27] = target: KDR (human) (UniProt P35968)
[28] = target: MAP4K4 (human) (UniProt O95819)
[29] = target: STK32A (human) (UniProt Q8WU08)
[30] = target: TNK1 (human) (UniProt Q13470)
[31] = target: CDKL2 (human) (UniProt Q92772)
[32] = target: DYRK2 (human) (UniProt Q92630)
[33] = target: CAMK2B (human) (UniProt Q13554)
[34] = target: PKN2 (human) (UniProt Q16513)
[35] = target: RPS6KA5 KD2 (human) (UniProt O75582)
[36] = target: PIK3CG (human) (UniProt P48736)
[37] = target: NIM1 (human) (UniProt Q8IY84)
[38] = target: NEK9 (human) (UniProt Q8TD19)
[39] = target: PRPF4B (human) (UniProt Q13523)
[40] = target: SLK (human) (UniProt Q9H2G2)

Chain of LATS2 (human) (Q9NRM7 whole entry, looked up): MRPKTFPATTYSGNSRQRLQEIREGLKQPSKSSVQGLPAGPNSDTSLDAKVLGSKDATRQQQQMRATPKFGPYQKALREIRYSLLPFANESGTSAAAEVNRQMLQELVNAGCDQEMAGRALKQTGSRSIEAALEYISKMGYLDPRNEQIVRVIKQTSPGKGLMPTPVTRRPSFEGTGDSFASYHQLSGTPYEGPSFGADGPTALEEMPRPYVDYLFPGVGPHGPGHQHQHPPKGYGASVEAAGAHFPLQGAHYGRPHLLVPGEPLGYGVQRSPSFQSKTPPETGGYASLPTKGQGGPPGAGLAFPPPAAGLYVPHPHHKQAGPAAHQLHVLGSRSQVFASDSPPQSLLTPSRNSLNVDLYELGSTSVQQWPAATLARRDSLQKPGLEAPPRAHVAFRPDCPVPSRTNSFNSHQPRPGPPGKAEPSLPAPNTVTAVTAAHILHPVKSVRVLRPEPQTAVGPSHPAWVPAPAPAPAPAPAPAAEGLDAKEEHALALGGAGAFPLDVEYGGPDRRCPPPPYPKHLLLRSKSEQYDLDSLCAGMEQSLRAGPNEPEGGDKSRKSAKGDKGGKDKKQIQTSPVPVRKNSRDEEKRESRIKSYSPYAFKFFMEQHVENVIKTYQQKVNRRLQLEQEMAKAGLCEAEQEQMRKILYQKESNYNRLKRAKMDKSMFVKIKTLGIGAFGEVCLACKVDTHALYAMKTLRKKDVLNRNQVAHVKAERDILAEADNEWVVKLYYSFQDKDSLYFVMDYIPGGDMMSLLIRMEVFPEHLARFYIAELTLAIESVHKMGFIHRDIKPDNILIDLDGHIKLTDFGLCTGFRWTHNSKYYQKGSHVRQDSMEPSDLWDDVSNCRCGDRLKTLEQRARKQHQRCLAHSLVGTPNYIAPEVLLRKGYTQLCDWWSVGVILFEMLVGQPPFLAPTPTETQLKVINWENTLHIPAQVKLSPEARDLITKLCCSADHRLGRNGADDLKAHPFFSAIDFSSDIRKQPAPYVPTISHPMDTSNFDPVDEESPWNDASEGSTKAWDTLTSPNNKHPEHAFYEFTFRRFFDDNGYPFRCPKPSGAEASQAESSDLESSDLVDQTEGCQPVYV
Chain of CSNK1E (human) (P49674 whole entry, looked up): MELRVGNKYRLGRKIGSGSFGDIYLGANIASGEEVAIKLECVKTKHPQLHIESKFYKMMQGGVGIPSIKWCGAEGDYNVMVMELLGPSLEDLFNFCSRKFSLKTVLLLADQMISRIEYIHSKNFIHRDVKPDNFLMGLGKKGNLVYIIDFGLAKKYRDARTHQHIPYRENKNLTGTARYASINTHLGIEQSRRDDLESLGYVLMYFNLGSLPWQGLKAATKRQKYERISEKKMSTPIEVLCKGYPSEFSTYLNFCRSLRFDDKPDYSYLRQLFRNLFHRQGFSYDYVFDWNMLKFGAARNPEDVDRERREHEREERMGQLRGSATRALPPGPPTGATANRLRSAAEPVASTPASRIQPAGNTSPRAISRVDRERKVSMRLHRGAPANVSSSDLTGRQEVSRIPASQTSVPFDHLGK
Chain of TIE1 (human) (P35590 whole entry, looked up): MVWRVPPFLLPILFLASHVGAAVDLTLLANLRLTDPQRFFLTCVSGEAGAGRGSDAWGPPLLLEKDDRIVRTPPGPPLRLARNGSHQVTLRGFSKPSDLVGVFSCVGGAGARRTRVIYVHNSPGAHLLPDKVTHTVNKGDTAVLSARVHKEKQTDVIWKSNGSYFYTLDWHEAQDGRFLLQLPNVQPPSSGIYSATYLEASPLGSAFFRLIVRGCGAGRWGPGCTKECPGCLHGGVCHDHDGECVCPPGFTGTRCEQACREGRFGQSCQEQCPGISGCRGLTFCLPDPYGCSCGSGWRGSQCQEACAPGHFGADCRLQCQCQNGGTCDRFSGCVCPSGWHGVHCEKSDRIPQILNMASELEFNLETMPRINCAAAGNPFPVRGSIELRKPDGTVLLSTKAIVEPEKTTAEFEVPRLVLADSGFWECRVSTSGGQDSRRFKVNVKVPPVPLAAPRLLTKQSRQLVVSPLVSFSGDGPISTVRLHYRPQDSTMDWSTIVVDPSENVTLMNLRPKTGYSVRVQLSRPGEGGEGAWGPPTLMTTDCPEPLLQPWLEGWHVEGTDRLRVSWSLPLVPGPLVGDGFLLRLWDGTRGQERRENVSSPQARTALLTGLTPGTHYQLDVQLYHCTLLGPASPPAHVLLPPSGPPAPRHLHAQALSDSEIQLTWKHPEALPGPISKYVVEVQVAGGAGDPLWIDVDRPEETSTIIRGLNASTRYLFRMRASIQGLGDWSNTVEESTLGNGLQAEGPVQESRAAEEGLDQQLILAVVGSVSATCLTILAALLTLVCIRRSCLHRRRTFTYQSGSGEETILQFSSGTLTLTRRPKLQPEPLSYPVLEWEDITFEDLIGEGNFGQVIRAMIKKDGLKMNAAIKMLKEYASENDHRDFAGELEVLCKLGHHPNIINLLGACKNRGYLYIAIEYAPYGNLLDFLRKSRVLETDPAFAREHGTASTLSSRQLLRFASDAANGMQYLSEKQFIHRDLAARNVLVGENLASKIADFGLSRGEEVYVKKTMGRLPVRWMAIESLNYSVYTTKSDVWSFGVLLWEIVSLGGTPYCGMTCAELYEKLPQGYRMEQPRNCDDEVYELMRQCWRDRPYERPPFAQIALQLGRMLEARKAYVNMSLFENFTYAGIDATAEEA
Chain of OXSR1 (human) (O95747 whole entry, looked up): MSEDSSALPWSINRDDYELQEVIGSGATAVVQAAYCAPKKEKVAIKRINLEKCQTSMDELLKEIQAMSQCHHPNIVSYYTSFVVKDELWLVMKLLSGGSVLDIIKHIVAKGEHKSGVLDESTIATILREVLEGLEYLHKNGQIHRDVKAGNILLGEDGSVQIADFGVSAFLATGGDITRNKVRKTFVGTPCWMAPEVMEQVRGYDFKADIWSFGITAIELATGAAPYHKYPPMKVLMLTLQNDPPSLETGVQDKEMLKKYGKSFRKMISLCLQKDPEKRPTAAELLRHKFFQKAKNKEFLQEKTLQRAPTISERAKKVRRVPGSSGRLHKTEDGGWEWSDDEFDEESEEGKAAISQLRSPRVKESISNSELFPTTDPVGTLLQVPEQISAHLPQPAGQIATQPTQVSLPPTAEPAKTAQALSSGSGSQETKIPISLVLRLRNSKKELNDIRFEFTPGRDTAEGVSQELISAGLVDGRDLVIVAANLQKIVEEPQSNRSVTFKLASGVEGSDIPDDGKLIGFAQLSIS
Chain of CSF1R (human) (P07333 whole entry, looked up): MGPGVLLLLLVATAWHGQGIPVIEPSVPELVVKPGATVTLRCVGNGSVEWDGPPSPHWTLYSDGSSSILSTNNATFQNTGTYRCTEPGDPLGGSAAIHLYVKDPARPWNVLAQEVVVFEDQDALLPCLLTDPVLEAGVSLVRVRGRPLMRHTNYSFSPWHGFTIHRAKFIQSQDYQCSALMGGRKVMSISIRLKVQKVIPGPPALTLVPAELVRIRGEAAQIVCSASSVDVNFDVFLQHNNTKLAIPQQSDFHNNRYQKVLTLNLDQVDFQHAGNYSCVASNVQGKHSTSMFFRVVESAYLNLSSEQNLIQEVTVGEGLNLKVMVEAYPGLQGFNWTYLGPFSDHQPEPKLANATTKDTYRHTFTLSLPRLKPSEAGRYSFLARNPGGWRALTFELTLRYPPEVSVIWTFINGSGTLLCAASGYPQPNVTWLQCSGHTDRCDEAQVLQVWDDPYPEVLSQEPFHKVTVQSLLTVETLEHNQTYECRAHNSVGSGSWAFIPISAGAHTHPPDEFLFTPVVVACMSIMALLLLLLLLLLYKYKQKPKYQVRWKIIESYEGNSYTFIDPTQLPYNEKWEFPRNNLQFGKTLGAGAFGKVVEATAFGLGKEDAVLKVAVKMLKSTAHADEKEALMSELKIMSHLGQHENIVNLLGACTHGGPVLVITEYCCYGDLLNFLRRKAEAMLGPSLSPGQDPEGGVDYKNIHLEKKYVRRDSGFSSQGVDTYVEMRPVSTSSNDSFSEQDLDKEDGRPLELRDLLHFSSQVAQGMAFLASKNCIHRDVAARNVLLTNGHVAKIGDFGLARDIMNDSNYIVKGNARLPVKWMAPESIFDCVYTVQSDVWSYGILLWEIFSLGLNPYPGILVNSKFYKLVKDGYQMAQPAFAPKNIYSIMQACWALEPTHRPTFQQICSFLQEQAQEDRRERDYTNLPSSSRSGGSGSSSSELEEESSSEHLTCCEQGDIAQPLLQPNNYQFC
Chain of RIOK2 (human) (Q9BVS4 whole entry, looked up): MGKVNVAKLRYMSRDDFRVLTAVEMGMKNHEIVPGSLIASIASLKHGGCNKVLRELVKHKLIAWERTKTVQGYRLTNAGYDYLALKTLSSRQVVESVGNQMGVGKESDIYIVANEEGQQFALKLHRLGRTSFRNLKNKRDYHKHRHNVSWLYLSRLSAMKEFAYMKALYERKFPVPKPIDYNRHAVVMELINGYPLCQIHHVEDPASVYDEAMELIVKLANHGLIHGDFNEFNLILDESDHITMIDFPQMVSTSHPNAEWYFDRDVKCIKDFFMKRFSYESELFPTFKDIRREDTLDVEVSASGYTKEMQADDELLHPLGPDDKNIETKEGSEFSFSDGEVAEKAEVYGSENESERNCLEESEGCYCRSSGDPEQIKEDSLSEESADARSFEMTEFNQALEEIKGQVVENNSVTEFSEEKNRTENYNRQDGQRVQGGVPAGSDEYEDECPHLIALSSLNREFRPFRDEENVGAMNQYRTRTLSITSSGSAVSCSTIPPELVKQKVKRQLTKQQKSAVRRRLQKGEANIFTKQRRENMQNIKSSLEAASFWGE

For `CCN1CCN(Cc2ccc(NC(=O)c3ccc(C)c(/C=C/c4cnc5[nH]ccc5c4OC)c3)cc2C(F)(F)F)CC1`, the kinase still bound, per cent of control [1] was 2.8%, the kinase still bound, per cent of control [2] was 31% and the kinase still bound, per cent of control [3] was 100%. The kinase still bound, per cent of control [4] was 74%, the kinase still bound, per cent of control [5] was 4.6% and the kinase still bound, per cent of control [6] was 100%. It also gave a kinase still bound, per cent of control [7] of 100%, a kinase still bound, per cent of control [8] of 19% and a kinase still bound, per cent of control [9] of 0%. It also gave a kinase still bound, per cent of control [10] of 0%, a kinase still bound, per cent of control [11] of 52% and a kinase still bound, per cent of control [12] of 48%. For the same compound, the kinase still bound, per cent of control [13] was 100%, the kinase still bound, per cent of control [14] was 0% and the kinase still bound, per cent of control [15] was 39%. For the same compound, the kinase still bound, per cent of control [16] was 45%, the kinase still bound, per cent of control [17] was 2.7% and the kinase still bound, per cent of control [18] was 82%. It also gave a kinase still bound, per cent of control [19] of 27%, a kinase still bound, per cent of control [20] of 79% and a kinase still bound, per cent of control [21] of 95%. It also gave a kinase still bound, per cent of control [22] of 100%, a kinase still bound, per cent of control [23] of 1.8% and a kinase still bound, per cent of control [24] of 30%. For the same compound, the kinase still bound, per cent of control [25] was 100%, the kinase still bound, per cent of control [26] was 96% and the kinase still bound, per cent of control [27] was 2.6%. For the same compound, the kinase still bound, per cent of control [28] was 4.2%, the kinase still bound, per cent of control [29] was 100% and the kinase still bound, per cent of control [30] was 1.4%. The kinase still bound, per cent of control [31] was 1.6%, the kinase still bound, per cent of control [32] was 78% and the kinase still bound, per cent of control [33] was 100%. The kinase still bound, per cent of control [34] was 26%, the kinase still bound, per cent of control [35] was 100% and the kinase still bound, per cent of control [36] was 96%. The kinase still bound, per cent of control [37] was 100%, the kinase still bound, per cent of control [38] was 8.4% and the kinase still bound, per cent of control [39] was 12%. It also gave a kinase still bound, per cent of control [40] of 0.6%.
